PubChem BioAssay AID588845 (Broad Institute, 2011)
Activity calls are given as the source filed them. How the calls were made is not given here.

Test system: not listed separately
Assay: HMLE_shTWIST CSC-like cell viability loss, confirmation, CellTiter-Glo luminescence, dry powder, set 2 (AID 588845)
Details: HMLE_shTWIST viability, CellTiter-Glo luminescence, 72 h; at 32 µM (top of the series)

SMILES | viability fraction
O=C(/C=C/c1ccc(-c2ccccc2)cc1)NC1=NCCS1 | 81.4% (inactive)
CC(C)c1ccc(/C=C/C(=O)NC2=NCCS2)cc1 | 8.35% (inactive)
COc1ccc(/C=C/C(=O)NC2=NCCS2)c(OC)c1 | 58.2% (inactive)
O=C(/C=C/c1ccc(Cl)c(Cl)c1)NC1=NCCS1 | 71.5% (inactive)

Test system: HMLE_shTWIST viability, CellTiter-Glo luminescence, 72 h
Assay: as above
Details: not given

SMILES | AC50 [µM]
Cc1csc(NC(=O)c2ccc(COc3cccc(Cl)c3)o2)n1 | 4.3
Cc1csc(NC(=O)c2ccc(COc3ccccc3F)o2)n1 | 0.13
CCc1ccc(/C=C/C(=O)NC2=NCCS2)cc1 | 11.7
Cc1csc(NC(=O)c2ccc(COc3ccccc3)o2)n1 | 18.2
Cc1csc(NC(=O)c2ccc(COc3cccc(F)c3)o2)n1 | 1.7
